Test results published in US20250082931A1, “Treating Gastric Cancer Using TTFields Combined with XELOX, FOLFOX or the Individual Constituents Thereof” (Novocure GmbH, priority 2019, published 2025).

What was measured:
KATO III cells [1] = test: Apoptosis analysis by Annexin V / 7AAD staining; type: cell-based; details: 72 h
KATO III cells [2] = test: Clonogenic effect (colonies count); details: for colonies count: 72 h;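 for all read-outs here: after treatment, KATO III cells were reseeded and grown 6–14 days, then colonies were fixed, stained and counted, expressed as percent of untreated (no drug) control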
Experimental: After 72 h of treatment the media and the cells were collected, and cytotoxicity was determined by cell counts. […] For the testing of the clonogenic effect, cells were seeded for colonies.
(§1) After 6-14 days the colonies were fixed, stained and counted to determine clonogenic effect. The overall effect was calculated by multiplying the cytotoxic effect and the clonogenic effect.
Clonogenic effect: The colonies from each well were counted using ImageJ software. Average and standard deviation of colony number of at least 5 wells from each treatment were calculated in excel software. The averages from these repeats was calculated to averages and standard errors and is presented as percent from control (no drug treatment) in XY graph of points with error bars using GraphPed software. Significant was determine by 2-way ANOVA followed Multiple comparison using GraphPed software.

KATO III cells [3] = test: Overall effect (cytotoxic effect x clonogenic effect); details: low concentration
Experimental: as §1
Overall effect: Each colony number was multiply in the percent of cytotoxic effect of its dish and averages and standard deviations of each treatment were calculated in Excel software. […] Significant was determine by 2-way ANOVA followed Multiple comparison using GraphPed software.

AGS cells = test: Cytotoxic effect by cell count after 72 h, with and without TTFields
Experimental: (§2) During the treatment the media of all dishes was replaced every 24 h (“hours”).
(§3) After 72 h of treatment the media and the cells were collected, and cytotoxicity was determined by cell counts.
(§4) Cells were seeded on inovitro dishes and petri dishes 24 h before starting the experiments. Media containing the indicated concentration of each chemotherapy component alone or FOLFOX and control media was added to the cells and the dishes were connected to TTFields (as in SOP-BI-009) or grown in 37° C., 5% CO2 for 72 h. Each treatment included 8 repeats (8 dishes). The media was replaced every 24 h. At the end of the experiment the cells were collected, and cytotoxicity was determined by cell counts, small number of cells were seeded for colonies and the cells (including cells from the media) were stained for Annexin V and 7AAD for apoptosis analysis.
(§5) A TTFields generator (Inovitro systems) was used to apply the treatment to the cells.
(§6) Cytotoxic effect: Average and standard deviation of cell number of at least 5 dishes from each treatment was calculated in Excel software. The averages from these repeats was calculated to averages and standard error and is presented as percent from control (no drug treatment) in XY graph of points with error bars using GraphPed software. Significant was determine by 2-way ANOVA followed Multiple comparison using GraphPed software.

KATO III cells [4] = test: as above
Experimental: as §2, §3, §4, §5, §6

[5] = 100 nM, + TTFields 150 kHz 1.6 V/cm
[6] = 200 nM, + TTFields 150 kHz 1.6 V/cm
[7] = 400 nM, + TTFields 150 kHz 1.6 V/cm
[8] = FOLFOX experiment, 50 nM, + TTFields 150 kHz 1.6 V/cm
[9] = FOLFOX experiment, 50 nM, no TTFields
[10] = 50 nM, + TTFields 150 kHz 1.6 V/cm

## O=C1[O][Pt]2([NH][C@@H]3CCCC[C@H]3[NH]2)[O]C1=O [Oxaliplatin]
KATO III cells [1]; 50 nM, no TTFields
  AnnV+ 7AAD− cell fraction: 11.36%
  AnnV− 7AAD+ cell fraction: 1.30%
  AnnV− 7AAD− cell fraction: 81.25%
KATO III cells [1]; [5]
  AnnV+ 7AAD+ cell fraction: 14.83%
  AnnV+ 7AAD− cell fraction: 19.81%
  AnnV− 7AAD+ cell fraction: 0.72%
  AnnV− 7AAD− cell fraction: 64.63%
KATO III cells [1]; 100 nM, no TTFields
  AnnV+ 7AAD+ cell fraction: 6.42%
  AnnV+ 7AAD− cell fraction: 10.55%
  AnnV− 7AAD+ cell fraction: 1.32%
  AnnV− 7AAD− cell fraction: 81.71%
KATO III cells [1]; [6]
  AnnV+ 7AAD+ cell fraction: 19.97%
  AnnV+ 7AAD− cell fraction: 22.60%
  AnnV− 7AAD+ cell fraction: 0.86%
  AnnV− 7AAD− cell fraction: 56.57%
KATO III cells [1]; 200 nM, no TTFields
  AnnV+ 7AAD+ cell fraction: 8.42%
  AnnV+ 7AAD− cell fraction: 11.47%
  AnnV− 7AAD+ cell fraction: 1.01%
  AnnV− 7AAD− cell fraction: 79.10%
KATO III cells [1]; [7]
  AnnV+ 7AAD+ cell fraction: 21.45%
  AnnV+ 7AAD− cell fraction: 25.36%
  AnnV− 7AAD+ cell fraction: 0.65%
  AnnV− 7AAD− cell fraction: 52.54%
KATO III cells [1]; 400 nM, no TTFields
  AnnV+ 7AAD+ cell fraction: 11.24%
  AnnV+ 7AAD− cell fraction: 12.11%
  AnnV− 7AAD+ cell fraction: 1.42%
  AnnV− 7AAD− cell fraction: 75.23%
KATO III cells [1]; [8]
  AnnV+ 7AAD+ cell fraction: 27.60%
  AnnV+ 7AAD− cell fraction: 15.15%
  AnnV− 7AAD+ cell fraction: 1.32%
  AnnV− 7AAD− cell fraction: 55.94%
KATO III cells [1]; [9]
  AnnV+ 7AAD+ cell fraction: 18.07%
  AnnV+ 7AAD− cell fraction: 10.28%
  AnnV− 7AAD+ cell fraction: 1.12%
  AnnV− 7AAD− cell fraction: 70.54%
KATO III cells [2]; [10]
  colonies count: 46 % from control
KATO III cells [2]; 50 nM, no TTFields
  colonies count: 71 % from control
KATO III cells [2]; [5]
  colonies count: 54 % from control
KATO III cells [2]; 100 nM, no TTFields
  colonies count: 74 % from control
KATO III cells [2]; [6]
  colonies count: 42 % from control
KATO III cells [2]; 200 nM, no TTFields
  colonies count: 70 % from control
KATO III cells [2]; [7]
  colonies count: 17 % from control
KATO III cells [2]; 400 nM, no TTFields
  colonies count: 23 % from control
KATO III cells [2]; Two-way ANOVA P<0.001
  colonies number (clonogenic effect and overall effect), drug + TTFields compared to drug alone: significant reduction in colonies number
KATO III cells [3]
  additional clonogenic and overall effect over TTFields alone: no additional effect
AGS cells; 25 nM, + TTFields 150 kHz 1.0 V/cm
  cell count: 62 % from control
AGS cells; 25 nM, no TTFields
  cell count: 88 % from control
AGS cells; 50 nM, + TTFields 150 kHz 1.0 V/cm
  cell count: 43 % from control
AGS cells; 50 nM, no TTFields
  cell count: 66 % from control
AGS cells; 100 nM, + TTFields 150 kHz 1.0 V/cm
  cell count: 33 % from control
AGS cells; 100 nM, no TTFields
  cell count: 52 % from control
AGS cells; 200 nM, + TTFields 150 kHz 1.0 V/cm
  cell count: 21 % from control
AGS cells; 200 nM, no TTFields
  cell count: 39 % from control
AGS cells; 400 nM, + TTFields 150 kHz 1.0 V/cm
  cell count: 8 % from control
AGS cells; 400 nM, no TTFields
  cell count: 11 % from control
AGS cells; FOLFOX experiment, 50 nM, + TTFields 150 kHz 1.0 V/cm
  cell count: 46 % from control
AGS cells; [9]
  cell count: 78 % from control
KATO III cells [4]; [10]
  cell count: 48 % from control
KATO III cells [4]; 50 nM, no TTFields
  cell count: 82 % from control
KATO III cells [4]; [5]
  cell count: 46 % from control
KATO III cells [4]; 100 nM, no TTFields
  cell count: 75 % from control
KATO III cells [4]; [6]
  cell count: 30 % from control
KATO III cells [4]; 200 nM, no TTFields
  cell count: 64 % from control
KATO III cells [4]; [7]
  cell count: 24 % from control
KATO III cells [4]; 400 nM, no TTFields
  cell count: 39 % from control
KATO III cells [4]; 800 nM, + TTFields 150 kHz 1.6 V/cm
  cell count: 21 % from control
KATO III cells [4]; 800 nM, no TTFields
  cell count: 25 % from control
KATO III cells [4]; [8]
  cell count: 51 % from control
KATO III cells [4]; [9]
  cell count: 84 % from control
